# Measured values from the OligoGym collection.
# After the bases stand the sugars from the 5' end (letter, count) and the backbone: PS all phosphorothioate, else s phosphorothioate and o phosphodiester by linkage. Methylation of C is not given here. e = 2'-O-(2-methoxyethyl) (MOE); k = constrained ethyl (cEt); d = 2'-deoxy (DNA); m = 2'-O-methyl
# Target: HSD17B13
# Details: ASO, HepaRG
Sequence,target mRNA inhibition (1 µM),other results
"GTTGATATTTCCATCT (sugars k3 d10 k3, PS)",55%,
"AAGACATTCTAGCCTG (sugars k3 d10 k3, PS)",63%,
"ATGTATGAGGTCTCCG (sugars k3 d10 k3, PS)",63%,
"CATAACCATAGGACAT (sugars k3 d10 k3, PS)",41%,
"GTGTAAGCTGAGAGTT (sugars k3 d1 m1 d8 k3, PS)",55%,
"CTTATGTAATAGCCAG (sugars k3 d10 k3, PS)",74%,
"TTATAACTACAAGAGG (sugars kkdddddddddkekek, PS)",55%,
"GTAAAGTTTGTTAGAG (sugars k3 d10 k3, PS)",54%,
"CTTATGAAGTTAGTAT (sugars k3 d10 k3, PS)",43%,
"GAAGCCACTGTGACGA (sugars k3 d10 k3, PS)",58%,
"GCACCCCATGGATCTA (sugars k3 d10 k3, PS)",35%,
"TACACCACACTAATGA (sugars k3 d10 k3, PS)",26%,
"ATAACCTAATAACTAC (sugars k3 d10 k3, PS)",26%,
"TTGAATTCACTATCTC (sugars k3 d10 k3, PS)",45%,
"AGGCTAGGGAAATCTT (sugars kkdddddddddkekek, PS)",45%,
"TTCGAAACTATTCATA (sugars k3 d10 k3, PS)",44%,
"ATTGTAATCTTGAGGC (sugars k3 d10 k3, PS)",39%,
"AATAATAGCTCTATTG (sugars k3 d1 m1 d8 k3, PS)",16%,
"AGGTATGTCATACTTC (sugars k3 d10 k3, PS)",5%,
"TGTAAGAGTCAGTATC (sugars k3 d9 k3 e1, PS)",46%,
"CTCATTATAAGCTAAC (sugars k3 d10 k3, PS)",13%,
"CAACAGTTTAGATTGC (sugars k3 d10 k3, PS)",66%,
"AAAGACTTTGAGACTC (sugars kkdddddddddkekek, PS)",45%,
"GGCTACAGATTGGAAT (sugars kkdddddddddkekek, PS)",73%,target mRNA inhibition (0.02 µM): 16%; target mRNA inhibition (0.078 µM): 0%; target mRNA inhibition (0.313 µM): 27%; target mRNA inhibition (1.25 µM): 62%; target mRNA inhibition (5 µM): 83%

Sequence,target mRNA inhibition (1 µM),other results
"GTGAAAGCCAACAGCG (sugars k3 d10 k3, PS)",62%,
"ATAATGGGCAGAGCTG (sugars k3 d10 k3, PS)",53%,
"TAGTCTTCAGCAAAGT (sugars k3 d10 k3, PS)",49%,
"CCACTATCAGAACAGT (sugars k3 d10 k3, PS)",31%,
"GATGTTCATGGCTTTG (sugars k3 d10 k3, PS)",81%,target mRNA inhibition (0.02 µM): 0%; target mRNA inhibition (0.078 µM): 5%; target mRNA inhibition (0.313 µM): 75%; target mRNA inhibition (1.25 µM): 68%
"CTAATGTATGAGGTCT (sugars k3 d10 k3, PS)",46%,
"ATCTCTGGGACCAAGG (sugars k3 d9 k3 e1, PS)",53%,
"AGAGGATAGTCCATGC (sugars k3 d1 m1 d8 k3, PS)",53%,
"GATAGATCTCTTCTCT (sugars k3 d10 k3, PS)",0%,
"TAAGCTGAGAGTTCTA (sugars k3 d10 k3, PS)",64%,
"GGTCACCTTTCATAAT (sugars k3 d10 k3, PS)",57%,
"CCTGTGTTAGCTTTAA (sugars k3 d9 k3 e1, PS)",66%,
"GTATTGAGATGACAGT (sugars k3 d10 k3, PS)",68%,target mRNA inhibition (0.02 µM): 0%; target mRNA inhibition (0.078 µM): 0%; target mRNA inhibition (0.313 µM): 3%; target mRNA inhibition (1.25 µM): 47%; target mRNA inhibition (5 µM): 73%
"AAGATCGGCTGGATAT (sugars k3 d10 k3, PS)",1%,
"ACTTGATCTCTTAGCT (sugars kkdddddddddkekek, PS)",62%,
"AAAGATCTGGCCAGTT (sugars k3 d10 k3, PS)",3%,
"CATAATAATAGCTCTA (sugars k3 d9 k3 e1, PS)",55%,
"TTCTCAAGGAGTACTT (sugars k3 d10 k3, PS)",76%,
"AGTGCCAAACCAATGT (sugars k3 d10 k3, PS)",62%,
"CTGTTGCAAGTTCTTC (sugars k3 d10 k3, PS)",85%,target mRNA inhibition (0.02 µM): 0%; target mRNA inhibition (0.078 µM): 0%; target mRNA inhibition (0.313 µM): 49%; target mRNA inhibition (1.25 µM): 73%; target mRNA inhibition (5 µM): 88%
"GACATGAAGATTAGTT (sugars k3 d10 k3, PS)",3%,
"GATGCTCCATAATAAT (sugars kkdddddddddkekek, PS)",17%,
"TCTGTCTCCAATACAG (sugars k3 d10 k3, PS)",13%,
"ATCTATCAGACTTCTT (sugars kkdddddddddkekek, PS)",37%,

Sequence,target mRNA inhibition (1 µM),other results
"CAACTATGTAATAGGC (sugars k3 d10 k3, PS)",79%,target mRNA inhibition (0.02 µM): 1%; target mRNA inhibition (0.078 µM): 17%; target mRNA inhibition (0.313 µM): 42%; target mRNA inhibition (1.25 µM): 73%; target mRNA inhibition (5 µM): 92%
"TTTACTCACTTCTGGT (sugars k3 d10 k3, PS)",30%,
"AACAGTCTTAAACCTT (sugars kkdddddddddkekek, PS)",37%,
"ATACAGGCCATAATCT (sugars k3 d10 k3, PS)",0%,
"GATGATGTTCATGGCT (sugars k3 d10 k3, PS)",86%,target mRNA inhibition (0.02 µM): 3%; target mRNA inhibition (0.078 µM): 17%; target mRNA inhibition (0.313 µM): 70%; target mRNA inhibition (1.25 µM): 85%
"GTGCCAAACCAATGTT (sugars k3 d1 m1 d8 k3, PS)",30%,
"TTTAGGGCAAACCTTG (sugars k3 d10 k3, PS)",67%,
"GAGAGTAATCAGTTTT (sugars k3 d10 k3, PS)",27%,
"TGATTTAGTTGGTAGC (sugars k3 d10 k3, PS)",79%,target mRNA inhibition (0.02 µM): 7%; target mRNA inhibition (0.078 µM): 43%; target mRNA inhibition (0.313 µM): 73%; target mRNA inhibition (1.25 µM): 84%; target mRNA inhibition (5 µM): 94%
"CGACTTCATCTGTCTC (sugars k3 d10 k3, PS)",19%,
"TGAAGATTAGTTAACC (sugars k3 d10 k3, PS)",21%,
"TTCTCTCCATCATCGA (sugars k3 d10 k3, PS)",35%,
"TACAGACTAAGGGACC (sugars k3 d10 k3, PS)",68%,
"TGGAATGCTACTTGAA (sugars k3 d10 k3, PS)",85%,target mRNA inhibition (0.02 µM): 0%; target mRNA inhibition (0.078 µM): 22%; target mRNA inhibition (0.313 µM): 55%; target mRNA inhibition (1.25 µM): 71%; target mRNA inhibition (5 µM): 90%
"AAGAATAGGAGAGTCT (sugars k3 d10 k3, PS)",70%,
"CAATAATAATGGGCAG (sugars k3 d10 k3, PS)",43%,
"CGTCAAAAACCGTCAA (sugars k3 d10 k3, PS)",20%,
"GCTAGTGCCAAACCAA (sugars k3 d9 k3 e1, PS)",70%,
"TCCTTATACTGAAGGC (sugars k3 d10 k3, PS)",22%,
"CTTGAACAGTCTTAAA (sugars k3 d1 m1 d8 k3, PS)",49%,
"TTTAGCAGCTTGGAAG (sugars k3 d10 k3, PS)",43%,
"GACCAGGGAATTTATC (sugars k3 d10 k3, PS)",41%,
"ATTAAGCATTGTTAGC (sugars k3 d10 k3, PS)",0%,
"AATGTATCTTATAAGA (sugars k3 d10 k3, PS)",10%,

Sequence,target mRNA inhibition (1 µM),other results
"GGCTATAGTAATTGCT (sugars k3 d10 k3, PS)",13%,
"GCTGTAAGAGTCAGTA (sugars k3 d9 k3 e1, PS)",52%,
"AAATATGTCCAGGTTG (sugars k3 d10 k3, PS)",68%,
"TAGAGTCGGTCACCTT (sugars k3 d1 m1 d8 k3, PS)",55%,
"CGTTTACTCACTTCTG (sugars k3 d10 k3, PS)",21%,
"GATTTGAAGGTTAGAT (sugars k3 d10 k3, PS)",47%,
"GGACCAGGGAATTTAT (sugars k3 d10 k3, PS)",55%,
"GTTAGCTAAGGGAGAG (sugars k3 d10 k3, PS)",18%,
"CTTACTAAGGAAATTC (sugars k3 d10 k3, PS)",19%,
"GTCTTAAACCTTCCCT (sugars k3 d10 k3, PS)",63%,
"ATTAACATTCGGCTAG (sugars k3 d10 k3, PS)",17%,
"CATTTAGCAGCTTGGA (sugars k3 d10 k3, PS)",88%,target mRNA inhibition (0.02 µM): 0%; target mRNA inhibition (0.078 µM): 0%; target mRNA inhibition (0.313 µM): 54%; target mRNA inhibition (1.25 µM): 75%; target mRNA inhibition (5 µM): 86%
"GACAACAGAGTTCTGT (sugars k3 d10 k3, PS)",9%,
"CACCGTTTTGGGCTAA (sugars kkdddddddddkekek, PS)",42%,
"CCTTAACAAACCTCCA (sugars k3 d10 k3, PS)",27%,
"AGAGGCTAGGGAAATC (sugars k3 d1 m1 d8 k3, PS)",48%,
"ACAGGATAGAGCACAT (sugars k3 d10 k3, PS)",44%,
"TGACATAACTACTTCA (sugars k3 d10 k3, PS)",22%,
"AAACAAGAGGATAGTC (sugars k3 d1 m1 d8 k3, PS)",53%,
"TCTTATCCACACCTTC (sugars k3 d10 k3, PS)",31%,
"GTCAGACCTCTGTGAA (sugars k3 d10 k3, PS)",34%,
"AGCTTTTGTCCACCTT (sugars kkdddddddddkekek, PS)",62%,
"CAGTAGGTGTGTTTCA (sugars k3 d10 k3, PS)",47%,
